Data from patent US20210137951A1, “DRUG COMBINATION FOR TREATMENT OF AMYOTROPHIC LATERAL SCLEROSIS, PREPARATION METHOD AND USE THEREOF” (priority 2018, published 2021).

Columns and labels:
[1] = test system: hSOD1-G93A transgenic mice; test: Number of mice surviving more than 120 days; format: in vivo; details: intragastric once a day for 4 weeks, 40 mg/kg (positive control 2 mg/kg), 8-9 mice per group
Method: (§1) 10 two-months wild-type BALB/C mice were used as the normal control group, and 110 two-months hSOD1-G93A transgenic mice were randomly divided into 11 groups, 10 mice for each group, and 11 groups are blank group, positive control group, the drug compositions 1-3 of the present invention groups, and the control 1-6 groups, respectively.
All mice were adaptively fed for three weeks, and a rotating rod experiment was performed once a week. The diameter of the rotating rod was 3.5 cm, and its rotating speed was 12 r/min. Experiment on each mouse was carried out three times in parallel, with a 5 min interval. The longest time recorded was the fall time of mice, the mice with a fall time of shorter than 7 min in the third rotating rod experiment were excluded, and then mice received drugs by intragastric administration, in which the normal control group and the blank group were given physiological saline, while the positive control group, the drug combinations 1-3 groups, and the control groups 1-6 were given corresponding drugs, with the volume of 0.5 ml. Amongst, the gavage dose of positive control group was 2 mg/kg body weight, and the gavage dose of drug combinations 1-3 and controls 1-6 groups was both 40 mg/kg body weight. […] In one experiment, each mouse was tested 3 times at interval of 5 minutes, and the longest time recorded was the fall time of mice. […]

[2] = test system: hSOD1-G93A transgenic mice; format: in vivo; details: for Effect on delaying the progression of amyotrophic lateral sclerosis (in words): judged from fall time and mice surviving more than 120 days; for Falling time (s) On 1st day of gavage / Falling time (s) On 7th day of gavage / Falling time (s) On 14th day of gavage / Falling time (s) On 21th day of gavage / Falling time (s) On 28th day of gavage: intragastric once a day, 40 mg/kg (positive control 2 mg/kg), rod 12 r/min, cut-off 10 min; for Falling time (s) On 1st day of gavage: 1 h after 1st administration; for Falling time (s) On 7th day of gavage: 1 h after 7th administration; for Falling time (s) On 14th day of gavage: 1 h after 14th administration; for Falling time (s) On 21th day of gavage: 1 h after 21st administration; for Falling time (s) On 28th day of gavage: 1 h after 28th administration
Method: as §1
All mice were adaptively fed for three weeks, and a rotating rod experiment was performed once a week. The diameter of the rotating rod was 3.5 cm, and its rotating speed was 12 r/min. Experiment on each mouse was carried out three times in parallel, with a 5 min interval. The longest time recorded was the fall time of mice, the mice with a fall time of shorter than 7 min in the third rotating rod experiment were excluded, and then mice received drugs by intragastric administration, in which the normal control group and the blank group were given physiological saline, while the positive control group, the drug combinations 1-3 groups, and the control groups 1-6 were given corresponding drugs, with the volume of 0.5 ml. Amongst, the gavage dose of positive control group was 2 mg/kg body weight, and the gavage dose of drug combinations 1-3 and controls 1-6 groups was both 40 mg/kg body weight. For all of groups, drugs were given once a day for 4 weeks. After 1 h of the 1st, 7th, 14th, 21st, and 28th intragastric administrations, a stick-rotation experiment was performed. In one experiment, each mouse was tested 3 times at interval of 5 minutes, and the longest time recorded was the fall time of mice. […] After the 28th gavage, the mice were continually fed, and the number of mice surviving for more than 120 days in each group was recorded, in which if they were placed in the supine position, the mice could not turn to the prone position within 30 S, and thus they were determined as dead.

| Compound | Survival numbers (number of mice surviving for more than 120 days) [1] | Effect on delaying the progression of amyotrophic lateral sclerosis (in words) ([2]; gavage 4 weeks) | Falling time (s) On 1st day of gavage [2] [s] | Falling time (s) On 7th day of gavage [2] [s] | Falling time (s) On 14th day of gavage [2] [s] | Falling time (s) On 21th day of gavage [2] [s] | Falling time (s) On 28th day of gavage [2] [s] | Indexes for the fall time and the number of mice surviving more than 120 days, comparison between groups (in words) ([2]; gavage 4 weeks) |
| --- | --- | --- | --- | --- | --- | --- | --- | --- |
| O=C(/C=C/c1ccc(O)c(O)c1)O[C@@H]1C[C@](O)(C(=O)O)C[C@@H](O)[C@H]1O [Control 1, 3-O-caffeoylquinic acid] | 3 | showed to some extent the effect on delaying the progression of amyotrophic lateral sclerosis | 468.9 ± 26.1 | 315.3 ± 27.6 | 221.5 ± 22.8 | 127.8 ± 19.5 | 89.1 ± 18.5 |  |
| Nc1nc2ccc(OC(F)(F)F)cc2s1 [Positive control, Riluzole] |  |  | 479.2 ± 31.8 | 389.5 ± 27.7 | 259.3 ± 29.5 | 187.4 ± 17.5 | 129.3 ± 15.4 |  |
| creatine phosphate sodium [Control 6] | 2 | don't have obvious effect on delaying the progression of this disease | 475.8 ± 22.8 | 284.6 ± 19.3 | 155.8 ± 24.8 | 71.3 ± 12.3 | 44.78 ± 11.3 | roughly equivalent to those in the blank group |
